Measurements from article PMC3253112, “Functional Evolution of Duplicated Odorant-Binding Protein Genes, Obp57d and Obp57e, in Drosophila” (PLoS ONE, 2012).
Changes are numbered by the printed parent chain.

What was measured:
Experiment in all cases: intrinsic tryptophan fluorescence quenching
Format in all cases: binding
Conditions in all cases: 20 mM sodium acetate pH 5.0, 25 °C, 1 µM OBP; Q = ligand concentration at which 3% of OBP is bound
Dmel\OBP57e = target: T1, Dmel\OBP57e (Drosophila melanogaster, UniProt Q9V938)
T1 construct: mature protein, signal peptide removed, untagged; cloning primer encodes NTSVFNP
T1 sequence (Q9V938 21-136): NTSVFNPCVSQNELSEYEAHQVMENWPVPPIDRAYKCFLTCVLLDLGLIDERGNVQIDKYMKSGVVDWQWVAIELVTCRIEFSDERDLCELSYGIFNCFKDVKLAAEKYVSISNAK

Dpse\OBP57de = target: T2, Dpse\OBP57de (Drosophila pseudoobscura, UniProt A0A6I8UUP3)
T2 construct: gene LOC4804642; mature protein, signal peptide removed, untagged, Met added; primer encodes N-terminus HSNTAIFN
T2 sequence (A0A6I8UUP3 20-133): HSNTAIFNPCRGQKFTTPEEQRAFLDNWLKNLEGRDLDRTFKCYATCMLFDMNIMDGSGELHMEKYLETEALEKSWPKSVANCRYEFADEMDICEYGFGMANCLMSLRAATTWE

Dmel\OBP57d [1] = target: T3, Dmel\OBP57d (Drosophila melanogaster, UniProt Q8MMF9, Y89A)
T3 construct: mature protein, signal peptide removed, untagged, Met added; primer encodes N-terminus NDPCPHNQGID, C-terminus LTKS
T3 sequence (Q8MMF9 30-136 Y89A): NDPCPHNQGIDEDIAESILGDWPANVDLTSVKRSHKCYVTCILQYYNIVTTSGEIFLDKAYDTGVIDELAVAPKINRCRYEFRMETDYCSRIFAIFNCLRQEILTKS

Dmel\OBP57d [2] = target: T4, Dmel\OBP57d (Drosophila melanogaster, UniProt Q8MMF9, L133A)
T4 construct: mature protein, signal peptide removed, untagged, Met added; primer encodes N-terminus NDPCPHNQGID, C-terminus LTKS
T4 sequence (Q8MMF9 30-136 L133A): T3 sequence (Q8MMF9 30-136 Y89A) with A60Y, L104A

Dmel\OBP57d [3] = target: T5, Dmel\OBP57d (Drosophila melanogaster, UniProt Q8MMF9, D96A)
T5 construct: mature protein, signal peptide removed, untagged, Met added; primer encodes N-terminus NDPCPHNQGID, C-terminus LTKS
T5 sequence (Q8MMF9 30-136 D96A): T3 sequence (Q8MMF9 30-136 Y89A) with A60Y, D67A

Dmel\OBP57d [4] = target: T6, Dmel\OBP57d (Drosophila melanogaster, UniProt Q8MMF9)
T6 construct: mature protein, signal peptide removed, untagged, Met added; primer encodes N-terminus NDPCPHNQGID, C-terminus LTKS
T6 sequence (Q8MMF9 30-136): T3 sequence (Q8MMF9 30-136 Y89A) with A60Y

Dmel\OBP57d [5] = target: T7, Dmel\OBP57d (Drosophila melanogaster, UniProt Q8MMF9, DEL101-101)
T7 construct: mature protein, signal peptide removed, untagged, Met added; primer encodes N-terminus NDPCPHNQGID, C-terminus LTKS
T7 sequence (Q8MMF9 with tags, fused parts or gaps DEL101-101): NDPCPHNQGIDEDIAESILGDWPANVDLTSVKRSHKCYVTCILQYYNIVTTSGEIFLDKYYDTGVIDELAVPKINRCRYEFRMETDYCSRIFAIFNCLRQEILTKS

Dmel\OBP57d [6] = target: T8, Dmel\OBP57d (Drosophila melanogaster, UniProt Q8MMF9, P52A)
T8 construct: mature protein, signal peptide removed, untagged, Met added; primer encodes N-terminus NDPCPHNQGID, C-terminus LTKS
T8 sequence (Q8MMF9 30-136 P52A): T3 sequence (Q8MMF9 30-136 Y89A) with P23A, A60Y

Dmel\OBP57d [7] = target: T9, Dmel\OBP57d (Drosophila melanogaster, UniProt Q8MMF9, C33A)
T9 construct: mature protein, signal peptide removed, untagged, Met added; primer encodes N-terminus NDPCPHNQGID, C-terminus LTKS
T9 sequence (Q8MMF9 30-136 C33A): T3 sequence (Q8MMF9 30-136 Y89A) with C4A, A60Y

SMILES: CCCCCCCCCC(=O)O [C10, decanoic acid]
- Q (quenching value) (Dmel\OBP57e): particularly obvious in the affinity to C10–C13 fatty acids and 1-tridecanol

SMILES: CCCCCCCCCCCC(=O)O [C12, C12 fatty acid]
- Q (quenching value) (Dmel\OBP57e): particularly obvious in the affinity to C10–C13 fatty acids and 1-tridecanol
- Q (quenching value) (Dpse\OBP57de): The binding affinity of Dmel\OBP57e and Dpse\OBP57de to the same set of compounds was examined

SMILES: CCCCCCCCCCC(=O)O [C11, C11 fatty acid]
- Q (quenching value) (Dmel\OBP57e): particularly obvious in the affinity to C10–C13 fatty acids and 1-tridecanol

SMILES: CCCCCCCCCCCCC(=O)O [C13, tridecanoic acid]
- Q (quenching value) (Dmel\OBP57d [1]): none showed a complete loss of interaction with ligands
- Q (quenching value) (Dmel\OBP57e): Dmel\OBP57e also showed higher affinity than Dpse\OBP57de, not only to tridecanoic acid
- Q (quenching value) (Dmel\OBP57d [2]): none showed a complete loss of interaction with ligands
- Q (quenching value) (Dmel\OBP57d [3]): none showed a complete loss of interaction with ligands
- Q (quenching value) (Dmel\OBP57d [4]): the strongest interaction was observed with the longer chain fatty acid (tridecanoic acid: C13)
- Q (quenching value) (Dmel\OBP57d [5]): none showed a complete loss of interaction with ligands
- Q (quenching value) (Dmel\OBP57d [6]): none showed a complete loss of interaction with ligands
- Q (quenching value) (Dmel\OBP57d [7]): none showed a complete loss of interaction with ligands
